Experiments:
[1] = tested on: recombinant luciferase-encoding virions (NL4-3 backbone) pseudotyped with T-tropic HXB-2D envelope; assay: Infection of Jurkat cells with luciferase-encoding virions, HXB-2D envelope; format: cell-based, HIV-1; settings: 72 h
From the text: Fully infectious viral entities were generated by calcium phosphate transfection of 293T with pNL4-3 vector (T-tropic virions) as described below. Recombinant luciferase-encoding virus particles pseudotyped with the appropriate Env proteins have been used in our series of investigations. […] This test is based on the molecular construct pNL4-3-Luc-E-R+, a vector that carries the gene for firefly luciferase inserted into the nef gene of the pNL4-3 provirus and contains also a frameshift at the 5′ end of env (nt 5950) that prevents expression of the envelope glycoproteins. Progeny viruses were generated by cotransfecting 293T cells with pNL4-3-Luc-E-R+ and a plasmid DNA encoding for the appropriate envelope glycoproteins (T or macrophage-tropic). Briefly, a typical transfection experiment was performed as follow. In brief, 293T cells were plated 24 h before transfection at a concentration of 5×10^5 cells per 3 ml of DMEM into each well of 6-well plates. All solutions were brought to room temperature before use. Immediately before transfection, DNA was added to 25 μl of 2.5M CaCl2 and the volume was completed to 250 μl with distilled water. This solution was then added drop by drop to 250 μl of 2×HBS solution (280 mM NaCl, 50 mM HEPES, 1.5 mM Na2HPO4, pH 7.05) and the resulting mixture was stored at room temperature for 5 min. This DNA-HBS mixture was finally added drop by drop to plated 293T cells before incubation at 37° C. under a 5% CO2atmosphere. At 16 h after transfection, cells were washed twice with 3 ml of PBS and were incubated for an additional 24 h with 3 ml of DMEM supplemented with 10% FBS. Virion-containing supernatants were filtered through a 0.45-μm cellulose acetate membrane (Millipore, Mass.), aliquoted in 200 μl fractions, and were finally frozen at −85° C. until needed. Virus stocks were normalized for virion content using a commercial assay for the viral major core protein p24 (Organon Teknika, Durham, N.C.).
In brief, 100 μl of cell-free supernatant were discarded from each well and 25 μl of cell culture lysis buffer 5×(125 mM Tris phosphate [pH 7.8], 10 mM DTT, 5% Triton X-100, and 50% glycerol) were added to the wells before incubation at room temperature for 30 min. An aliquot of cell lysate (20 μl) was mixed with 100 μl luciferase assay buffer (20 mM tricine, 1.07 mM (MgCO3)4. Mg(OH)2.5H2O, 2.67 mM MgSO4, 0.1 mM EDTA, 270 μM coenzyme A, 470 μM luciferin, 530 μM ATP, and 33.3 mM DTT). Luciferase activity was monitored using a microplate luminometer (MLX; Dynex Technologies, Chantilly, Va.).
We attempted to define any putative interaction (additive, synergistic or antagonistic) between bpV compounds and currently approved anti-HIV-1 agents (AZT/Zidovudine, 3TC/Epivir/Lamivudine). […]

[2] = tested on: macrophage-tropic recombinant luciferase-encoding HIV-1 particles; assay: Infection of PM1 cells with luciferase reporter virus, macrophage-tropic envelope; format: cell-based; settings: 5 min pretreatment, 72 h
From the text: Fully infectious viral entities were generated by calcium phosphate transfection of 293T with pNL4-3 vector (T-tropic virions) as described below. Recombinant luciferase-encoding virus particles pseudotyped with the appropriate Env proteins have been used in our series of investigations. Such a system provides a highly sensitive and reproducible assay to monitor single-cycle viral infection events. This test is based on the molecular construct pNL4-3-Luc-E-R+, a vector that carries the gene for firefly luciferase inserted into the nef gene of the pNL4-3 provirus and contains also a frameshift at the 5′ end of env (nt 5950) that prevents expression of the envelope glycoproteins. Progeny viruses were generated by cotransfecting 293T cells with pNL4-3-Luc-E-R+ and a plasmid DNA encoding for the appropriate envelope glycoproteins (T or macrophage-tropic). Briefly, a typical transfection experiment was performed as follow. […]
In brief, 100 μl of cell-free supernatant were discarded from each well and 25 μl of cell culture lysis buffer 5×(125 mM Tris phosphate [pH 7.8], 10 mM DTT, 5% Triton X-100, and 50% glycerol) were added to the wells before incubation at room temperature for 30 min. […] Luciferase activity was monitored using a microplate luminometer (MLX; Dynex Technologies, Chantilly, Va.). […]

For K2[VO(O2)2pic].H2O [bpV[pic]], the “HIV-1 infection (luciferase activity)” value ([1]; bpV compound alone (2.5, 5, 10 μM)) was “inhibits HIV-1 infection”, the “antiviral effect in combination with 3TC” value ([1]; combined with 0.05 μM 3TC) was “greater antiviral effect” and the “antiviral effect in combination with AZT” value ([1]; combined with 0.05 μM AZT) was “greater antiviral effect”. The “infection (luciferase activity)” value [2] was “dose-dependent inhibition of infection”.
